Measured values published in patent US10196424B2, “Oral peptide inhibitors of interleukin-23 receptor and their use to treat inflammatory bowel diseases” (Protagonist Therapeutics, Inc., priority 2014, dated 2019).

Tested on: DSS-induced colitis in Sprague Dawley rats
Experiment: Rat colitis model: 9 days of 3% DSS-containing drinking water
Assay type: in vivo
Conditions: 100 mg/kg PO, QD
Protocol: Rat Colitis Model: 9 Days of 3% DSS-Containing Drinking Water
In this model, colitis was induced in SD rats by 9 days of ad lib exposure to drinking water containing 3% DSS. The disease activity index (DAI) score and ratio of colon weight:colon length were compared between three study groups (n=6 rats/group): vehicle, 3% DSS, and 3% DSS with positive control (sulfasalazine administered at 100 mg/kg PO, QD).
Acute colitis was induced by feeding female Sprague Dawley rats with 3% (wt/vol) DSS dissolved in drinking water. […] A neutralizing anti-IL-23p19 antibody was used as a comparator, and was administered intraperitoneally at 4 mg/kg on the same day and fifth day after starting DSS. […] At necropsy, the entire colon was removed from the cecum to the rectum. The colon was measured for length, flushed with PBS to remove feces, weighed, and opened longitudinally to determine macroscopic score.
Statistical analysis for significance was compared to the vehicle treated group and was determined using Student's T-test (GraphPad Prism). Differences were noted as significant *p≤0.05, **p≤0.01, ***p≤0.001, ****p≤0.0001.

Structure (SMILES): O=C(O)c1cc(/N=N/c2ccc(S(=O)(=O)Nc3ccccn3)cc2)ccc1O [sulfasalazine]
- terminal ratio of colon weight:colon length (3% DSS rats with and without treatment): significant
- disease activity index (DAI) score (3% DSS rats, compared to DSS alone, from Day 5): attenuated the disease score
